This is an account of results in patent publication US20120208781A1, “AMINOGLYCOSIDE DOSING REGIMENS” (Achaogen, Inc., priority 2009, published 2012).

In brackets after ≈: the same amount, converted by molar mass.

Data set [1] relates to rat kidney. The data set is described as follows: Rat nephrotoxicity model: serum markers of GFR (BUN, serum creatinine). The format is in vivo, Sprague-Dawley rats. The conditions noted are these: dose-response for BUN elevation.
Data set [2] concerns rat kidney. The data set is described as follows: Rat nephrotoxicity model: kidney histopathology (H&E). The conditions noted are these: rats, 14 d once-daily. Type of data set: in vivo, Sprague-Dawley rats. On the procedure:
This rat nephrotoxicity study design used 14 days of once-daily dosing of aminoglycosides in adult Sprague-Dawley rats. Rats were allowed full access to food and water, and aminoglycosides were dosed subcutaneously at 1 mL/kg dosing volume, formulated in water. Nephrotoxicity was assessed by monitoring changes in serum markers of glomerular filtration rate (GFR), namely blood urea nitrogen (BUN) and serum creatinine. Microscopic examination of kidney slices after fixation and hematoxylin and eosin (H&E) staining was also utilized, scoring for tubular dilation, cellular casts, interstitial inflammation, and regenerative changes to the tubules.

Another data set relates to E. coli. The experiment in a line: MIC, further Brooklyn patient isolates: E. coli. The format is cell-based. More on the design: unit not given beside the values. The conditions noted are these: E. coli (n = 3071). As to the method: (§1) Minimum inhibitory concentrations (MIC) were determined by reference Clinical and Laboratory Standards Institute (CLSI) broth microdilution methods per M7-A7 [2006]. Briefly, serial two-fold dilutions of Compound 1 and comparator AGs (together, “the test compounds”) were prepared at 2× concentration in appropriate diluent. The dilutions were mixed in 96-well assay plates with bacterial inoculum. Bacteria were suspended in sterile saline and added to each assay plate to obtain a final concentration of 5.5×10^5 CFU/mL. The plates were incubated at 35° C. for 20 hours in ambient air. […] After incubation, assay plates were read using a microtiter plate reader at 600 nm.
(§2) Further studies analyzed a greater number of unique patient isolates obtained from Brooklyn, N.Y. hospitals (including those species described above). These species included Acinetobacter, E. coli, Enterobacter, Klebsiella, and Pseudomonas.

Another data set concerns Enterobacter. The experiment in a line: MIC, further Brooklyn patient isolates: Enterobacter. The conditions noted are these: Enterobacter (n = 206). More on the design: unit not given beside the values. Type of data set: cell-based. As to the method: as §1, §2
A further data set has as its system P. aeruginosa (PA). The experiment in a line: MIC, broth microdilution, Brooklyn hospital isolates: P. aeruginosa. The conditions noted are these: PA (n = 33). The format is cell-based. As to the method:
(§3) In another study, the activity of Compound 1 against a collection of contemporary Gram-negative bacteria was determined. Unique patient isolates of P. aeruginosa (PA), A. baumannii (AB), K. pneumoniae (KP), E. coli (EC), and Enterobacter spp. (EB) from prior surveys at 16 Brooklyn, N.Y. hospitals were selected based on resistance patterns. The majority of isolates were fingerprinted by automated ribotyping. MICs were performed by broth microdilution. PCR was used to identify aminoglycoside-modifying enzymes (AMEs) in AB and KP and the KPC gene in Enterobacteriaceae (EN). The expression of the efflux genes mexA, C, E and X in PA, and adeB in AB was assessed by real-time RT-PCR.
(In general: In broth dilution the organism is exposed to a series of concentrations in liquid medium.)

Another data set relates to A. baumannii (AB). The data set is described as follows: MIC, broth microdilution, Brooklyn hospital isolates: A. baumannii. The format is cell-based. The conditions noted are these: AB (n = 38). On the procedure: as §3
For another data set, the system named is K. pneumoniae (KP). The experiment in a line: MIC, broth microdilution, Brooklyn hospital isolates: K. pneumoniae. Type of data set: cell-based. The following applies: KP (n = 71). On the procedure: as §3
In a further data set the test system is Enterobacter spp. (EB). The experiment in a line: MIC, broth microdilution, Brooklyn hospital isolates: Enterobacter spp. Type of data set: cell-based. The conditions noted are these: EB (n = 30). As to the method: as §3
The next data set relates to E. coli (EC). The data set is described as follows: MIC, broth microdilution, Brooklyn hospital isolates: E. coli. The format is cell-based. The conditions noted are these: EC (n = 32). On the procedure:
as §3

For `CN[C@@H]1[C@@H](O[C@H]2O[C@H](CO)[C@@H](N)[C@H](O)[C@H]2O)OC2C[C@@H](N)[C@@H](O[C@H]3[C@H](O)[C@@H](O)[C@H](N)C[C@@H]3N)OC2[C@@H]1O` (stereo partly drawn) [Apramycin, apramycin], the “apparent relative nephrotoxicity (ranking)” value in the data set with rat kidney [1] is on record as “Neomycin≈Gentamicin>Tobramycin>Apramycin≈Paromomycin>Amikacin”. The “Histopathology score (0 to 5 Scale): Casts” value (“Histopathology score … Casts” for short) with rat kidney [2] (3 mg/kg) is on record as 0 +/− 0; with rat kidney [2] (10 mg/kg), 0 +/− 0; in the data set on rat kidney [2] (30 mg/kg), 0 +/− 0; with rat kidney [2] (100 mg/kg), 1.4 +/− 0.5. The “Histopathology score (0 to 5 Scale): Dilation” value (from here on “Histopathology score … Dilation”) is reported as 0 +/− 0 in the data set on rat kidney [2] (3 mg/kg), 0 +/− 0 in the data set with rat kidney [2] (10 mg/kg), 0 +/− 0 in the data set on rat kidney [2] (30 mg/kg) and 0.6 +/− 0.5 with rat kidney [2] (100 mg/kg). For the same compound, the “Histopathology score (0 to 5 Scale): Inflammation” value in the data set with rat kidney [2] (3 mg/kg) is on record as 0.4 +/− 0.5; with rat kidney [2] (10 mg/kg) it was 0.4 +/− 0.5; with rat kidney [2] (30 mg/kg) it was 0.6 +/− 0.5; in the data set on rat kidney [2] (100 mg/kg), 2.4 +/− 0.5. Also, the “Histopathology score (0 to 5 Scale): Regeneration” value is 0 +/− 0 in the data set on rat kidney [2] (3 mg/kg), 0.6 +/− 1.3 in the data set on rat kidney [2] (10 mg/kg), 0.6 +/− 0.5 in the data set with rat kidney [2] (30 mg/kg) and 2.4 +/− 0.5 in the data set on rat kidney [2] (100 mg/kg).
Regarding `CC(C)(O/N=C(\C(=O)N[C@@H]1C(=O)N2C(C(=O)[O-])=C(C[n+]3ccccc3)CS[C@H]12)c1csc(N)n1)C(=O)O` [CAZ, ceftazidime], the MIC50 (in general, an inhibitory concentration at the 50% level, which refers to growth in some studies and to a panel of isolates in others) in the data set with E. coli is reported as “≦0.25”.
`CO/N=C(\C(=O)N[C@@H]1C(=O)N2C(C(=O)O)=C(CSc3nc(=O)c(O)nn3C)CS[C@H]12)c1csc(N)n1` [CRO]: the MIC50 entry in the data set with E. coli and in the data set on Enterobacter was “≦0.25” in each case.
Regarding `CO/N=C(\C(=O)N[C@@H]1C(=O)N2C(C(=O)[O-])=C(C[N+]3(C)CCCC3)CS[C@H]12)c1csc(N)n1` [FEP, cefepime], the MIC50 result against E. coli and in the data set on Enterobacter was “≦0.25” in each case. Besides, in the data set on E. coli, the MIC90 – broadly, an inhibitory concentration at the 90% level, which refers to growth in some studies and to a panel of isolates in others – is given as “≦0.25”.
As to `C[C@@H](O)[C@H]1C(=O)N2C(C(=O)O)=C(SCCN=CN)C[C@H]12` [Imipenem], the Susceptible in the data set with P. aeruginosa (PA) came out at 55%; in the data set on A. baumannii (AB), 55%; in the data set with K. pneumoniae (KP), 79%; in the data set with Enterobacter spp. (EB) it was 93%; in the data set with E. coli (EC) it was 91%. The MIC50 in the data set on P. aeruginosa (PA) (Pseudomonas aeruginosa) stood at 4 µg/mL (≈ 13.4 µM); with A. baumannii (AB) (Acinetobacter baumannii), 4 µg/mL (≈ 13.4 µM); with K. pneumoniae (KP) (Klebsiella pneumoniae) it was 0.25 µg/mL (≈ 0.835 µM); in the data set with Enterobacter spp. (EB) (Enterobacter), 0.5 µg/mL (≈ 1.67 µM); against E. coli (EC) (Escherichia coli) it was 0.125 µg/mL (≈ 0.418 µM). The MIC90 is greater than 8 µg/mL with P. aeruginosa (PA) (Pseudomonas aeruginosa); greater than 8 µg/mL against A. baumannii (AB) (Acinetobacter baumannii); greater than 8 µg/mL with K. pneumoniae (KP) (Klebsiella pneumoniae); 2 µg/mL (≈ 6.68 µM) with Enterobacter spp. (EB) (Enterobacter); 4 µg/mL (≈ 13.4 µM) against E. coli (EC) (Escherichia coli).
As for `NC[C@@H]1O[C@H](O[C@H]2[C@@H](O)[C@H](O[C@@H]3[C@@H](O)[C@H](N)C[C@H](N)[C@H]3O[C@H]3O[C@H](CO)[C@@H](O)[C@H](O)[C@H]3N)O[C@@H]2CO)[C@H](N)[C@@H](O)[C@@H]1O` [Paromomycin, paromomycin], the “apparent relative nephrotoxicity (ranking)” value in the data set with rat kidney [1] was “Neomycin≈Gentamicin>Tobramycin>Apramycin≈Paromomycin>Amikacin”. Also, in the data set with rat kidney [2] (30 mg/kg), the “Histopathology score … Casts” value is on record as 0 +/− 0, the “Histopathology score … Dilation” value is given as 1 +/− 1, the “Histopathology score (0 to 5 Scale): Inflammation” value is 1.4 +/− 0.9 and the “Histopathology score (0 to 5 Scale): Regeneration” value is 1.4 +/− 0.5. In addition, in the data set on rat kidney [2] (100 mg/kg), the “Histopathology score … Casts” value is listed as 2.6 +/− 0.5, the “Histopathology score … Dilation” value is listed as 3.2 +/− 0.4, the “Histopathology score (0 to 5 Scale): Inflammation” value is on record as 3 +/− 0 and the “Histopathology score (0 to 5 Scale): Regeneration” value was 4 +/− 0. Besides, in the data set on rat kidney [2] (300 mg/kg), the “Histopathology score … Casts” value was 0 +/− 0, the “Histopathology score … Dilation” value was 0 +/− 0, the “Histopathology score (0 to 5 Scale): Inflammation” value is 0 +/− 0 and the “Histopathology score (0 to 5 Scale): Regeneration” value is listed as 0 +/− 0.
